Source: ChEMBL document CHEMBL6078625 (J Med Chem, 2024)

Columns and labels:
[1] = biological target: T1, Receptor-type tyrosine-protein kinase FLT3 (Homo sapiens, UniProt P36888); test: Inhibition of wild type FLT3 (unknown origin)
T1 sequence (P36888 whole entry): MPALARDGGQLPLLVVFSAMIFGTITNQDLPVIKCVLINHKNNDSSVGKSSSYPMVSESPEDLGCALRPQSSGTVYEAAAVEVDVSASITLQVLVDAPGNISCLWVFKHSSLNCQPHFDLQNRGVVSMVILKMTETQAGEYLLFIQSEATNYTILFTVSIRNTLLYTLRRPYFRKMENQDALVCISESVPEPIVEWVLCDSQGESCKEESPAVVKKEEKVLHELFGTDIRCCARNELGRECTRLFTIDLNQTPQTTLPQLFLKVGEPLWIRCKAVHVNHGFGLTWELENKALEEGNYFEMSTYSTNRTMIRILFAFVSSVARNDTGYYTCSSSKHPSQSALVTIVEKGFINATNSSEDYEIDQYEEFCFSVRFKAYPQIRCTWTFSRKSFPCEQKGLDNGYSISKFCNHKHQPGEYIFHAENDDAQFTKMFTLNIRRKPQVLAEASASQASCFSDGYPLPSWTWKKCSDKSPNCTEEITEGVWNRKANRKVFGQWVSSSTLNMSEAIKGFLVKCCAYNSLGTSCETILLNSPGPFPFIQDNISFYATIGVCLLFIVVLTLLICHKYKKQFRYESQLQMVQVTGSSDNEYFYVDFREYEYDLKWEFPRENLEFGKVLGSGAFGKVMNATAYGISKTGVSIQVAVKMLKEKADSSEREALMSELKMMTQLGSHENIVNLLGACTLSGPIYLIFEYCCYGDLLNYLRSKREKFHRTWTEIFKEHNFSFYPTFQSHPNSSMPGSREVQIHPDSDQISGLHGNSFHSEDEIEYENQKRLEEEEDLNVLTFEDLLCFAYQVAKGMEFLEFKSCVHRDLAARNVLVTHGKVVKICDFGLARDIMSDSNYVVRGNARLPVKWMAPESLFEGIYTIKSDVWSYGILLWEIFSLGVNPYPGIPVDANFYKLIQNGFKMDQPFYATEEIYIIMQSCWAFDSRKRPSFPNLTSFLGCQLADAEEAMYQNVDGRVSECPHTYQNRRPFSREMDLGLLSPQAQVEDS

MOLM-13 = test: Antiproliferative activity against human MOLM-13 cells; type: functional, cell-based
MV4-11 = test: Antiproliferative activity against human MV4-11 cells; type: functional, cell-based
BaF3 [2] = test: Antiproliferative activity against mouse BaF3 cells harbouring FLT3-ITD-F691L mutant; type: functional, cell-based
BaF3 [3] = test: Antiproliferative activity against mouse BaF3 cells harbouring FLT3-ITD-N676D mutant; type: functional, cell-based
BaF3 [4] = test: Antiproliferative activity against mouse BaF3 cells harbouring FLT3-ITD-D835V mutant; type: functional, cell-based
[5] = biological target: Epithelial discoidin domain-containing receptor 1 (Homo sapiens, UniProt Q08345); test: Inhibition of human DDR1 by discoverX kinome scan assay
Sequence of Epithelial discoidin domain-containing receptor 1 (Q08345 whole entry, the tested form may be a part): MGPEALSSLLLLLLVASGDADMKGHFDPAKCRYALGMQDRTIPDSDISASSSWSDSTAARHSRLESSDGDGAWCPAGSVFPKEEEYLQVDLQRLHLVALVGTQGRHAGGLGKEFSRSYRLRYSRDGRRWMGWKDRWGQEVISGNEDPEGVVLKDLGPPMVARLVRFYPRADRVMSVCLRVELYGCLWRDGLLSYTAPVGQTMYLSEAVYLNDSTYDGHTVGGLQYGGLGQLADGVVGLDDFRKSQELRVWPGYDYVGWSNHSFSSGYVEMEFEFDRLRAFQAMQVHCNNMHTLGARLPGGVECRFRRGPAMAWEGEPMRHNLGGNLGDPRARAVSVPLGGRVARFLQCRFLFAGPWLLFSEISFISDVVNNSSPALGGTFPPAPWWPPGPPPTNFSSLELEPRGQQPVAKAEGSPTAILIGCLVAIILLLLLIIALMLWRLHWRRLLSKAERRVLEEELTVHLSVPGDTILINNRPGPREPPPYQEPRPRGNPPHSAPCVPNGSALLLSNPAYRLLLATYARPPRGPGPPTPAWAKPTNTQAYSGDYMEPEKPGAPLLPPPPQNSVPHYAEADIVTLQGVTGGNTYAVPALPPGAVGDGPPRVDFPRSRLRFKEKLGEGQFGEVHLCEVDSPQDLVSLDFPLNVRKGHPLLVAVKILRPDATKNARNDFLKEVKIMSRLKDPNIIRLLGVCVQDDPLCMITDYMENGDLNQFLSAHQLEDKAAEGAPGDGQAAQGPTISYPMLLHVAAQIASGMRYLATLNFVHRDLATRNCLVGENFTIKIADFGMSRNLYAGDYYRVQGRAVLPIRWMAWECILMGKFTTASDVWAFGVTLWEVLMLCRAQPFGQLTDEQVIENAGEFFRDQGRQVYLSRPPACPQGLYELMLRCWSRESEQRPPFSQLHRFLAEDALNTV

[6] = biological target: T2, Discoidin domain-containing receptor 2 (Homo sapiens, UniProt Q16832); test: Inhibition of human DDR2 by discoverX kinome scan assay
T2 sequence (Q16832 whole entry): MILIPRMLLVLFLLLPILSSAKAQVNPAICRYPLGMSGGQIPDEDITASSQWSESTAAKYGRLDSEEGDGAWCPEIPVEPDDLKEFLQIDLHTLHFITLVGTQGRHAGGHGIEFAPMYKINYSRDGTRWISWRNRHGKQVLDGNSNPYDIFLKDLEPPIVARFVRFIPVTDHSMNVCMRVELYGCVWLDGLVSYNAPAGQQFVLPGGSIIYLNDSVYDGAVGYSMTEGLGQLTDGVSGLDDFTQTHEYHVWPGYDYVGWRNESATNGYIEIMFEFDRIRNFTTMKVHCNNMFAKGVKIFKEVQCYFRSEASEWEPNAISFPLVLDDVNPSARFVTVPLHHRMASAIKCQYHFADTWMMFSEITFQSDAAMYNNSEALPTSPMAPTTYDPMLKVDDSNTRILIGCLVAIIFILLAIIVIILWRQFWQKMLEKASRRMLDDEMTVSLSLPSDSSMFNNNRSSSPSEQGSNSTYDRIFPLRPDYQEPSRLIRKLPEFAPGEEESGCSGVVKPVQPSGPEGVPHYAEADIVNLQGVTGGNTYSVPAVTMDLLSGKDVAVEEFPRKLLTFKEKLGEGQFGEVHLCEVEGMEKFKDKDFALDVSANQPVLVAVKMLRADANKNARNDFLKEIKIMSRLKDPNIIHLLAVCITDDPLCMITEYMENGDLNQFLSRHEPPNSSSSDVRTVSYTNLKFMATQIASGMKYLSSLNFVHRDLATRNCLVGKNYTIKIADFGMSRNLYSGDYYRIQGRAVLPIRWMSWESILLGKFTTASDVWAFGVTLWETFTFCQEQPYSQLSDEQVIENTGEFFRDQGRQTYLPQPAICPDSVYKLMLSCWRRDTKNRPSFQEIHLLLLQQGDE

[7] = biological target: High affinity nerve growth factor receptor (Homo sapiens, UniProt P04629); test: Inhibition of human TRKA by discoverX kinome scan assay
Sequence of High affinity nerve growth factor receptor (P04629 whole entry): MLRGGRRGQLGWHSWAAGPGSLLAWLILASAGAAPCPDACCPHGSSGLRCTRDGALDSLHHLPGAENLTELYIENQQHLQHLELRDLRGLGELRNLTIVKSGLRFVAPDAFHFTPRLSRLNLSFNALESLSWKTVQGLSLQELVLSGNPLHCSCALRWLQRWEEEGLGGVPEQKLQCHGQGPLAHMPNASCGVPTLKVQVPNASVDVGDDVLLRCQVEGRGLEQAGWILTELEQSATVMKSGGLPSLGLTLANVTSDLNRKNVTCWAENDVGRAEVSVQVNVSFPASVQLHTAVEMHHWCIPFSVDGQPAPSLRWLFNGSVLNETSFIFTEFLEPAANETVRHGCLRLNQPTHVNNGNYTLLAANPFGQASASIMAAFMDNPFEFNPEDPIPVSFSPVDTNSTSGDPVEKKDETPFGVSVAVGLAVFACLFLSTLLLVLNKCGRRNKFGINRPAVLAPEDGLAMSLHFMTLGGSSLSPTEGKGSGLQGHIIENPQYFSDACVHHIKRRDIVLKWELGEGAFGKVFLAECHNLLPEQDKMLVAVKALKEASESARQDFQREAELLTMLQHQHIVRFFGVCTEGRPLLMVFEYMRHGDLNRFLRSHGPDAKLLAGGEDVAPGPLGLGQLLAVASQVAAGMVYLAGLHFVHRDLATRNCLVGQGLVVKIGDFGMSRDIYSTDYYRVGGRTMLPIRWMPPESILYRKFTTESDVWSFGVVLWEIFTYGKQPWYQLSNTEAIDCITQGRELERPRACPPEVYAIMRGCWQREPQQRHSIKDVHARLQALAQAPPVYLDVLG

[8] = biological target: T3, Muscle, skeletal receptor tyrosine-protein kinase (Homo sapiens, UniProt O15146); test: Inhibition of human MUSK by discoverX kinome scan assay
T3 sequence (O15146 whole entry): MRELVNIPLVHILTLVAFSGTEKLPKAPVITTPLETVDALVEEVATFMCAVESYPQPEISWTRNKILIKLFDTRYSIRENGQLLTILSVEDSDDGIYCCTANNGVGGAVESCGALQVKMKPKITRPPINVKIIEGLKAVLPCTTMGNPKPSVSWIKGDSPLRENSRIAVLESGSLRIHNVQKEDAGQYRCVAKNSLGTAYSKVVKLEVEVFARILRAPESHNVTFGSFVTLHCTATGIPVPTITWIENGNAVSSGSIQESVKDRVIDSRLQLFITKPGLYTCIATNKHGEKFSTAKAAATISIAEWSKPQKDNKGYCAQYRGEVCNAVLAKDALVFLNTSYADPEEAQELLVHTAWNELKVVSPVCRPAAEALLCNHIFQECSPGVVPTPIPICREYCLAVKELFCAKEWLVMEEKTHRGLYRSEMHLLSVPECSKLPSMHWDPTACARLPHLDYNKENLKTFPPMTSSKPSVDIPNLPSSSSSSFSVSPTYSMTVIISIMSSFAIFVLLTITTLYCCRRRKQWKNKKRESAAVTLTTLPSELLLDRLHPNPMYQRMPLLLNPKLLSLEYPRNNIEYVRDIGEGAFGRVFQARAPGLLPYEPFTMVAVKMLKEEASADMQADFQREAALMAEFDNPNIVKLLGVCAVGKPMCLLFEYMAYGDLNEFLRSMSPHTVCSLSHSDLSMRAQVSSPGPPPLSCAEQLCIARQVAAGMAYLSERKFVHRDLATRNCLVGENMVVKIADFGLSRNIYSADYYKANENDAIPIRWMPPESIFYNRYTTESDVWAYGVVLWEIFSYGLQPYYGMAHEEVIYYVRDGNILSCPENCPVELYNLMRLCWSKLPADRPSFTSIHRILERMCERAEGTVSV

An IC50 [1] of 103 nM, an IC50 (MOLM-13) of 140 nM and an IC50 (MV4-11) of 58 nM were found for `COc1cccc(CC(=O)Nc2ccc(-c3cc(C)nc4nocc34)cc2)c1` in this work. It also gave an IC50 (BaF3 [2]) of 3570 nM, an IC50 (BaF3 [3]) of 1160 nM and an IC50 (BaF3 [4]) of 8420 nM.

An IC50 [5] of 55.4 nM, an IC50 [6] of 96.7 nM and an IC50 [7] of 113 nM were found for `Cc1cc(-c2ccc(NC(=O)Nc3ccc(C(C)(C)C)cc3)cc2)c2c(N)noc2n1` in this work. The IC50 [8] was > 1000 nM.
